24 compounds from US20260049084A1, “ENPP1 MODULATORS AND PRODUCTS AND USES THEREOF” (Gossamer Bio Services, Inc., priority 2022, published 2026) can be followed below.

A value given as a limit tells only on which side of the number the result lay.

In assay [1] the target is Recombinant human ENPP1 protein (Homo sapiens (Human), UniProt P22413). The assay is described as follows: ENPP1 cGAMP Biochemical Assay. The conditions noted are these: 0.5 nM ENPP1, 1000 nM 2′3′-cGAMP substrate, TR-FRET. On the procedure:
ENPP1 cGAMP Biochemical Assay
Compounds were added to 384 well Proxiplate (PerkinElmer, Waltham MA) at 100 nl/well from DMSO stocks using Echo (Labcyte, San Jose CA). Recombinant human ENPP1 protein (R&D Systems, Minneapolis MN) was prepared in assay buffer (50 mM Tris pH7.5, 1 mM TCEP pH7.0, 2 mM MgCl2 and 0.005% Tween20) and added at 10 μl/well. The plate was sealed, centrifuged at 1000 rpm for 1 minute and incubated at room temperature for 30 minutes before 5 μl substrate 2′3′-cGAMP (R&D Systems, Minneapolis MN) in assay buffer was added to each well to a final concentration of 0.5 nM ENPP1 and 1000 nM 2′3′-cGAMP. The plate was sealed and centrifuged at 1000 rpm for 1 minute again. After incubation at 25° C. for 60 minutes, Terbium labelled AMP/GMP antibody and AMP/GMP HiLyte647 Tracer (BellBrook Labs, Fitchburg WI) in detection buffer (50 mM Tris pH7.5, 20 mM EDTA and 0.1% Prionex) were added to the reaction mixture to a final concentration of 2 nM (5 μl/well). The assay plate was incubated at room temperature for 120 minutes. TR-FRET signal was detected using Envision (PerkinElmer, Waltham MA).
For orientation: Time-resolved FRET reads energy transfer from a long-lived donor to a nearby acceptor.

Assay [2] deals with Recombinant human ENPP3 protein (Homo sapiens (Human), UniProt O14638). The assay is described as follows: ENPP3 cGAMP Biochemical Assay. As to conditions: 70.5 nM ENPP3, 120 μM 2′3′-cGAMP substrate, TR-FRET. As for the experimental part:
ENPP3 cGAMP Biochemical Assay
Compounds were added to 384 well Proxiplate (PerkinElmer, Waltham MA) at 100 nl/well from DMSO stocks using Echo (Labcyte, San Jose CA). Recombinant human ENPP3 protein (Acro Biosystems, Newwark DE) was prepared in assay buffer (50 mM Tris pH7.5, 1 mM TCEP pH7.0, 2 mM MgCl2, 2 mM CaCl2), 2 mM ZnCl2 and 0.005% Tween20) and added at 2 μl/well. The plate was sealed, centrifuged at 1000 rpm for 1 minute and incubated at room temperature for 30 minutes before 2 μl substrate 2′3′-cGAMP (R&D Systems, Minneapolis MN) in assay buffer was added to each well to a final concentration of 70.5 nM ENPP3 and 120 μM 2′3′-cGAMP. The plate was sealed and centrifuged at 1000 rpm for 1 minute again. After incubation at 25° C. for 60 minutes, Terbium labelled AMP/GMP antibody and AMP/GMP HiLyte647 Tracer (BellBrook Labs, Fitchburg WI) in detection buffer (50 mM Tris pH7.5, 20 mM EDTA and 0.1% Prionex) were added to the reaction mixture to a final concentration of 475 nM and 3 nM respectively. The assay plate was incubated at room temperature for 120 minutes. TR-FRET signal was detected using Envision (PerkinElmer, Waltham MA).

Chain of Recombinant human ENPP1 protein (P22413 whole entry): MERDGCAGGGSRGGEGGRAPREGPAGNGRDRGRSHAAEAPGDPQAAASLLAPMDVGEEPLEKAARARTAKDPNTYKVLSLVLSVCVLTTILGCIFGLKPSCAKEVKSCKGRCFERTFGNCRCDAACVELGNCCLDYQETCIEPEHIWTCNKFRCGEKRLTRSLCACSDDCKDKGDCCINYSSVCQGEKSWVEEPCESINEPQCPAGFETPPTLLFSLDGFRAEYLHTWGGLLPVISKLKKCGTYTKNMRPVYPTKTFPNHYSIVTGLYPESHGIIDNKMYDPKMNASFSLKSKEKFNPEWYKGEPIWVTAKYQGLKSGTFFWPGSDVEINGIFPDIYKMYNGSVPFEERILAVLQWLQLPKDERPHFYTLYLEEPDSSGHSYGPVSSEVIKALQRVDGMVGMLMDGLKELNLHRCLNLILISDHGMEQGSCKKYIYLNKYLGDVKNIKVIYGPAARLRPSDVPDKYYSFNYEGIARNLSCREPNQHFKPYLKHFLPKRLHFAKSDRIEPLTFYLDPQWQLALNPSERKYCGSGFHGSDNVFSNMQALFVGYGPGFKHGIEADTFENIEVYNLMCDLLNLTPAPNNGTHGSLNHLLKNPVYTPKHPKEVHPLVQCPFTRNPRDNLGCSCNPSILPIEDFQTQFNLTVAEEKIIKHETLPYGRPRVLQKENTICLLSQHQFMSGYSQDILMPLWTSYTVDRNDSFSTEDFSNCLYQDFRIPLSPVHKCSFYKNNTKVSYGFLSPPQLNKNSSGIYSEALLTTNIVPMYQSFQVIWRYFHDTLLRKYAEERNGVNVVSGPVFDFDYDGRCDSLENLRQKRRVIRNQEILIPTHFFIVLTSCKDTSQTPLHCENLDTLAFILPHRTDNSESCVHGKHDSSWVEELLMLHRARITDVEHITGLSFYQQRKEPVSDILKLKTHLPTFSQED
Chain of Recombinant human ENPP3 protein (O14638 whole entry): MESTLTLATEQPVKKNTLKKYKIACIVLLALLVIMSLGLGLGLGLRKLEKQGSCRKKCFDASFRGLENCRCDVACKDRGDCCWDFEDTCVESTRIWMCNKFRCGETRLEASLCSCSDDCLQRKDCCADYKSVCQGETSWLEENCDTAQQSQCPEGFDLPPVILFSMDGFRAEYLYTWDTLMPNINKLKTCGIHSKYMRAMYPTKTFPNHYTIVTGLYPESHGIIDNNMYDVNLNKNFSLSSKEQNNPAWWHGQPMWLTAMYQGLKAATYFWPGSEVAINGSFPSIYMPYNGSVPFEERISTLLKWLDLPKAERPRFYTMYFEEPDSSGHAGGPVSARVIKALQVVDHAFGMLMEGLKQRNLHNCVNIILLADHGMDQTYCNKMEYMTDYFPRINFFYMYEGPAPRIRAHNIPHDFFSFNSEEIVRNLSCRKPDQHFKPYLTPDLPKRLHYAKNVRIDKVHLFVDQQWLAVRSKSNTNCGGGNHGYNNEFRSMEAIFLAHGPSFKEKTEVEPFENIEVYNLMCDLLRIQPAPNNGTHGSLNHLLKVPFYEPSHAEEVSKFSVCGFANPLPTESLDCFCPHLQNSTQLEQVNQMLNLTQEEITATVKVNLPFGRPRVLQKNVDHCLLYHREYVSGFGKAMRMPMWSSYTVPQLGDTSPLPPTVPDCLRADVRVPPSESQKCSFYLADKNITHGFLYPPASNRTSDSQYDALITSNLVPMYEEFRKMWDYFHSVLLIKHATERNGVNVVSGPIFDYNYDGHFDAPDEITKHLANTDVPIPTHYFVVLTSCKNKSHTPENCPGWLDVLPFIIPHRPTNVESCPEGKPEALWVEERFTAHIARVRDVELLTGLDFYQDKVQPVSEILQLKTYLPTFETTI

As a reminder, the IC50 is the concentration needed to halve the response being measured. On to `C[S@@](=N)(=O)N1CCC(CNc2ccnc3c2c(Cl)nn3CC#N)CC1` [Compound 13E, (S)-2-(3-chloro-4-(((1-(S-methylsulfonimidoyl)piperidin-4-yl)methyl)amino)-1H-pyrazolo[3,4-b]pyridin-1-yl)acetonitrile], for which the IC50 is below 10 nM in assay [1] and 10 to 100 nM in assay [2].
Taken in the same sequence, the figures for `CCn1nc(Cl)c2c(NCc3ccc([S@](N)(=O)=NC)cc3)ccnc21` [Compound 12D, (R)-4-(((3-chloro-1-ethyl-1H-pyrazolo[3,4-b]pyridin-4-yl)amino)methyl)-N′-methyl benzenesulfonimidamide] were 10 to 100 nM and at least 1000 nM.
The like results for `CCn1nc(Cl)c2c(NCC3CCN([S@@](C)(=N)=O)CC3)ccnc21` [Compound 13G, (R)-3-chloro-1-ethyl-N-((1-(S-methylsulfonimidoyl)piperidin-4-yl)methyl)-1H-pyrazolo[3,4-b]pyridin-4-amine] were, in that order, 10 to 100 nM and at least 1000 nM.
Taken in the same sequence, the figures for `CCn1ncc2c(NCc3ccc(S(=N)(N)=O)cc3)cc(-c3ncc[nH]3)nc21` (stereo not drawn) [Compound 2C, 4-(((1-ethyl-6-(1H-imidazol-2-yl)-1H-pyrazolo [3,4-b]pyridin-4-yl)amino)methyl)benzene sulfonimidamide] were 100 to 1000 nM and 100 to 1000 nM.
Regarding `CN=S(N)(=O)c1ccc(CNc2ccnc3c2c(Cl)nn3CC#N)cc1` (stereo not drawn) [Compound 12B, 4-(((3-chloro-1-(cyanomethyl)-1H-pyrazolo[3,4-b]pyridin-4-yl)amino)methyl)-N′-methylbenzenesulfonimidamide], the IC50 in assay [1] is below 10 nM; in assay [2] it was 100 to 1000 nM.
With `CCn1nc(Cl)c2c(Nc3ccc(S(N)(=O)=NC)cc3)ccnc21` (stereo not drawn) [Compound 5D, 4-((3-chloro-1-ethyl-1H-pyrazolo[3,4-b]pyridin-4-yl)amino)-N′-methylbenzenesulfonimidamide], the half-inhibitory concentration (IC50) in assay [1] was below 10 nM; in assay [2], 100 to 1000 nM.
For `C#CCn1nc(Cl)c2c(NCc3c(F)cc(S(N)(=O)=NC)cc3F)ccnc21` (stereo not drawn) [Compound 3B, 4-(((3-chloro-1-(prop-2-yn-1-yl)-1H-pyrazolo[3,4-b]pyridin-4-yl)amino)methyl)-3,5-difluoro-N-methylbenzenesulfonimidamide], the IC50 is below 10 nM in assay [1] and 100 to 1000 nM in assay [2].
Turning to `CCn1nc(Cl)c2c(NCc3ccc(S(=N)(=O)CC4CC4)cc3)ccnc21` (stereo not drawn) [Compound 9J, (4-(((3-chloro-1-ethyl-1H-pyrazolo[3,4-b]pyridin-4-yl)amino)methyl)phenyl) (cyclopropylmethyl)(imino)-λ^6-sulfanone], the IC50 in assay [1] was below 10 nM; in assay [2], 100 to 1000 nM.
On to `CCn1nc(Cl)c2c(Nc3ccc(S(=N)(N)=O)cc3)ccnc21` (stereo not drawn) [Compound 5C, 4-((3-chloro-1-ethyl-1H-pyrazolo[3,4-b]pyridin-4-yl)amino)benzenesulfonimidamide], for which the IC50 was 10 to 100 nM in assay [1] and 100 to 1000 nM in assay [2].
Regarding `CN[S@](=N)(=O)c1ccc(CNc2ccnc3c2c(Cl)nn3CC#N)cc1` [Compound 10E, (S)-4-(((3-chloro-1-(cyanomethyl)-1H-pyrazolo[3,4-b]pyridin-4-yl)amino)methyl)-N-methylbenzenesulfonimidamide], the IC50 in assay [1] is below 10 nM; in assay [2], 100 to 1000 nM.
Turning to `CCN=S(N)(=O)c1ccc(Nc2ccnc3c2c(Cl)nn3CC)cc1` (stereo not drawn) [Compound 5E, 4-((3-chloro-1-ethyl-1H-pyrazolo[3,4-b]pyridin-4-yl)amino)-N′-ethylbenzenesulfonimidamide], the IC50 in assay [1] was below 10 nM; in assay [2] it was 100 to 1000 nM.
`CCn1nc(Cl)c2c(Nc3ccc(S(N)(=O)=NC(C)C)cc3)ccnc21` (stereo not drawn) [Compound 5H, 4-((3-chloro-1-ethyl-1H-pyrazolo[3,4-b]pyridin-4-yl)amino)-N′-isopropylbenzenesulfonimidamide]: the half-inhibitory concentration (IC50) in assay [1] was below 10 nM; in assay [2] it was 100 to 1000 nM.
With `CCn1nc(Cl)c2c(NCc3ccc(S(=N)(N)=O)cc3)ccnc21` (stereo not drawn) [Compound 11C, 4-(((3-chloro-1-ethyl-1H-pyrazolo[3,4-b]pyridin-4-yl)amino)methyl)benzenesulfonimidamide], the IC50 in assay [1] is below 10 nM; in assay [2], at least 1000 nM.
Take `C#CCn1nc(Cl)c2c(NCC3CCN(S(C)(=N)=O)CC3)ccnc21` (stereo not drawn) [Compound 13A, 3-chloro-N-((1-(S-methylsulfonimidoyl)piperidin-4-yl)methyl)-1-(prop-2-yn-1-yl)-1H-pyrazolo[3,4-b]pyridin-4-amine]: the 50% inhibitory concentration (IC50) in assay [1] is below 10 nM; in assay [2], 10 to 100 nM.
For `CCn1nc(Cl)c2c(NCc3ccc([S@@](N)(=O)=NC)cc3)ccnc21` [Compound 12C, (S)-4-(((3-chloro-1-ethyl-1H-pyrazolo[3,4-b]pyridin-4-yl)amino)methyl)-N′-methyl benzenesulfonimidamide], the results for the IC50 in assay [1] and in assay [2] were 10 to 100 nM and at least 1000 nM, respectively.
On to `CCn1nc(Cl)c2c(NCc3ccc([S@](C)(=N)=O)cc3)ccnc21` [Compound 9L, (R)-(4-(((3-chloro-1-ethyl-1H-pyrazolo[3,4-b]pyridin-4-yl)amino)methyl)phenyl)(imino) (methyl)-λ^6-sulfanone], for which the IC50 was below 10 nM in assay [1] and 100 to 1000 nM in assay [2].
Taken in the same sequence, the figures for `CN=S(N)(=O)N1CCC(CNc2ccnc3c2c(Cl)nn3CC#N)CC1` (stereo not drawn) [Compound 15A, 4-(((3-chloro-1-(cyanomethyl)-1H-pyrazolo[3,4-b]pyridin-4-yl)amino)methyl)-N′-methylpiperidine-1-sulfonimidamide] were below 10 nM and 10 to 100 nM.
The like results for `N#CCn1nc(Cl)c2c(NCc3ccc(S(=N)(N)=O)cc3)ccnc21` (stereo not drawn) [Compound 11B, 4-(((3-chloro-1-(cyanomethyl)-1H-pyrazolo[3,4-b]pyridin-4-yl)amino)methyl)benzenesulfonimidamide] were, in that order, below 10 nM and 100 to 1000 nM.
As to `CCn1nc(Cl)c2c(Nc3ccc(S(N)(=O)=NCC4CC4)cc3)ccnc21` (stereo not drawn) [Compound 5F, 4-((3-chloro-1-ethyl-1H-pyrazolo[3,4-b]pyridin-4-yl)amino)-N′-(cyclopropylmethyl)benzene sulfonimidamide], the IC50 in assay [1] was below 10 nM; in assay [2], 100 to 1000 nM.
With `C#CCn1nc(Cl)c2c(NCC3CCN([S@](C)(=N)=O)CC3)ccnc21` [Compound 13B, (S)-3-chloro-N-((1-(S-methylsulfonimidoyl)piperidin-4-yl)methyl)-1-(prop-2-yn-1-yl)-1H-pyrazolo[3,4-b]pyridin-4-amine], the IC50 is below 10 nM in assay [1] and 10 to 100 nM in assay [2].
Consider `CCn1nc(Cl)c2c(NCc3ccc([S@](=N)(=O)CCOC)cc3)ccnc21` [Compound 9N, (R)-(4-(((3-chloro-1-ethyl-1H-pyrazolo [3,4-b]pyridine-4-yl)amino)methyl)phenyl)(imino)(2-methoxyethyl)-λ^6-sulfanone], for which the IC50 in assay [1] was below 10 nM; in assay [2] it was at least 1000 nM.
Take `N#CCn1nc(Cl)c2c(NCC3CCN(S(N)(=O)=NC#N)CC3)ccnc21` (stereo not drawn) [Compound 15B, 4-(((3-chloro-1-(cyanomethyl)-1H-pyrazolo[3,4-b]pyridin-4-yl)amino)methyl)-N′-cyanopiperidine-1-sulfonimidamide]: the 50% inhibitory concentration (IC50) in assay [1] and in assay [2] was below 10 nM in each case.
In the case of `C[S@](=N)(=O)N1CCC(CNc2ccnc3c2c(Cl)nn3CC#N)CC1` [Compound 13F, (R)-2-(3-chloro-4-(((1-(S-methylsulfonimidoyl)piperidin-4-yl)methyl)amino)-1H-pyrazolo[3,4-b]pyridin-1-yl)acetonitrile], the IC50 in assay [1] was 100 to 1000 nM; in assay [2] it was at least 1000 nM.
As for `CCn1ncc2c(Oc3ccc(S(N)(=O)=NCC4CC4)cc3)ccnc21` (stereo not drawn) [Compound 16A, N′-(cyclopropylmethyl)-4-((1-ethyl-1H-pyrazolo [3,4-b]pyridin-4-yl)oxy)benzenesulfonimidamide], the IC50 in assay [1] and in assay [2] was at least 1000 nM each time.
